Data as given in patent US6172056A, “Pharmaceutical compositions and method for prophylaxis and therapy of radical-mediated cell damage” (Jenapharm GmbH & Co. KG, priority 1993, dated 2001).

Key:
[1] = test system: lipid peroxidation (synaptosomal membrane fraction, Fenton's reagent); assay: In vitro inhibition of lipid peroxidation, thiobarbituric acid test; type: biochemical; settings: 30 min at 37° C.
estrogen receptor = target: T1, estrogen receptor (Oryctolagus cuniculus, UniProt G1SML6); assay: Estrogen receptor binding, competitive with 3H-ethinyl estradiol in uterine cytosol; settings: RBA relative to 17β-estradiol, infantile rabbit uterine cytosol, 0° C.
T1 construct: in uterine cytosol of the infantile rabbit; from tissue; host or cells: uterine cytosol of infantile rabbit
T1 sequence (G1SML6 1-598): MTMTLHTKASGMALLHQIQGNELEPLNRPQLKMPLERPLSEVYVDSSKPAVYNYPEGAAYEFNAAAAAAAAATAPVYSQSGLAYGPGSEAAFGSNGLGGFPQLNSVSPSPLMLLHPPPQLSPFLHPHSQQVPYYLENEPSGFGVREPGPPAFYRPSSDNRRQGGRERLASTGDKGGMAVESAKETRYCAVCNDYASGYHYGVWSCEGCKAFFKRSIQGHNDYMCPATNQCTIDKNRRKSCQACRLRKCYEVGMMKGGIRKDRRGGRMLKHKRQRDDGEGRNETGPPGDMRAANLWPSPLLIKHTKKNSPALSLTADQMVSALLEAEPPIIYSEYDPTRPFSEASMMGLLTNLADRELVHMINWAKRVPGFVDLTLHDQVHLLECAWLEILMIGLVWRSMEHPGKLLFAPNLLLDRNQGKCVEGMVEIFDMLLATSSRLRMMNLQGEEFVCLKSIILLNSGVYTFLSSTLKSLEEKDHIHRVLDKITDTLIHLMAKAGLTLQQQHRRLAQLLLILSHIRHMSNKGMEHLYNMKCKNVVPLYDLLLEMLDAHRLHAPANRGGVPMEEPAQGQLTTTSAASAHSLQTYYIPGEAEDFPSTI
Method: Statements about estrogen affinity are made by measuring the estrogen receptor binding.
Measuring the estrogen receptor binding is done by competitive binding of the ^3 H-labelled synthetic estrogen ethinyl estradiol and of the compounds to be tested in uterine cytosol of the infantile rabbit at 0° C. Reaction equilibrium and receptor saturation are the goal.
With the statement about the RBA values, the estrogen receptor affinity of the particular compound is characterized; taking into account certain prerequisites for in vitro investigations (such as a free 30H group), it is a measure for estrogen affinity (again, see Table 1).

[2] = test system: LDL, isolated from human whole blood; assay: In vitro inhibition of LDL oxidation (Esterbauer et al), CuSO4-induced; settings: 5 μmol test compound, 10 μmol CuSO4
peroxidation = settings: literature statement; cited from earlier work

Row | Molecule | IC50 [1] | Relative binding affinity to estrogen receptor (estrogen receptor) | LDL oxidation inhibition (prolongation of the lag phase in min) [2] | Inhibition of peroxidation in vitro and in vivo (peroxidation)
1 | C[C@]12CC[C@@H]3c4ccc(O)cc4CC[C@H]3[C@@]13C[C@H]3C[C@@H]2O [14α,15α-Methylene estradiol] | 5 to 10 µM | – | – | –
2 | C[C@]12CCC3=C(CCc4cc(O)ccc43)[C@@H]1CC[C@@H]2O [8-Dehydroestradiol] | 1 µM | 59.6% | 120 min | –
3 | CC(CO)[C@H]1CC[C@H]2[C@@H]3CCc4cc(O)ccc4[C@H]3CC[C@]12C (stereo partly shown) [20-hydroxymethyl-3-hydroxy-19-norpregna-1,3,5(10)-triene] | 14.4 µM | 22.5% | – | –
4 | COc1cc2c(cc1O)[C@H]1CC[C@]3(C)[C@@H](O)CC[C@H]3[C@@H]1CC2 [2-Hydroxyestradiol-3-methyl ether] | 3.2 µM | – | – | –
5 | C[C@]12CC[C@@H]3c4cc(O)c(O)cc4CC[C@H]3[C@@H]1CC[C@@H]2O [2-hydroxyestradiol] | – | – | – | inhibit peroxidation in vitro and in vivo
6 | C[C@]12CC[C@@H]3c4ccc(O)cc4CC[C@H]3[C@@H]1CC[C@@]21CO1 [3-Hydroxy-1,3,5(10)-estratriene-17S-spirooxirane] | 4.11 µM | – | 170 min | –
7 | C[C@@]12CC[C@H]3c4ccc(O)cc4CC[C@@H]3[C@H]1CC[C@H]2O [ent-Estradiol] | 8.8 µM | – | 120 min | –
8 | Cc1c(C)c2c(c(C)c1O)CCC(C)(CN1CCN(c3cc(N4CCCC4)nc(N4CCCC4)n3)CC1)O2 (stereo not shown) [Compound U-78517F, reference compound] | 1.8 µM | – | 70 min | –
9 | C[C@]12CC[C@@H]3c4ccc(O)cc4CC[C@H]3[C@@H]1CC[C@H]2O [17α-Estradiol] | 8.9 µM | – | – | –
10 | C[C@]12CCC3=C(CCc4cc(O)ccc43)[C@@H]1CC[C@H]2O [8-Dehydro-17α-estradiol] | 4.1 µM | – | – | –
11 | C[C@]12CC=C3c4ccc(O)cc4CC[C@H]3[C@@H]1C[C@@H](O)[C@@H]2O [9(11)-dehydroestriol] | 10.6 µM | 7.5% | – | –
12 | Vitamin E [reference compound] | 132 µM | – | – | –
13 | C[C@]12CCC3=C(CCc4cc(O)ccc43)[C@]13C[C@@H]3C[C@@H]2O [14β,15β-Methylene-8 dehydroestradiol, 14β,15β-methylene-8-dehydroestradiol] | 1.9 µM | – | – | –
14 | C[C@]12CCc3c(ccc4cc(O)ccc34)[C@@H]1CC[C@H]2O [6,8-Didehydro-17α-estradiol] | 5.1 µM | – | – | –
15 | C[C@]12CC[C@@H]3c4ccc(O)cc4CC[C@H]3[C@@H]1CCC2=O [estrone] | – | – | – | inhibit peroxidation in vitro and in vivo
16 | C[C@]12CC[C@@H]3c4ccc(O)cc4CC[C@H]3[C@@H]1CC[C@@H]2O [17β-Estradiol, reference compound] | 12.4 µM | – | 110 min | inhibit peroxidation in vitro and in vivo
17 | C[C@]12CCC3=C(CCc4cc(O)ccc43)[C@@]13C[C@H]3C[C@@H]2O [14α,15α-Methylene-8-dehydroestradiol] | 0.9 µM | – | – | –
18 | C[C@]12CC[C@@H]3c4ccc(O)cc4CC[C@H]3[C@@H]1C[C@@H](O)[C@@H]2O [Estriol, reference compound] | 122 µM | 10.3% | 45 min | inhibit peroxidation in vitro and in vivo
19 | C[C@]12CC=C3c4ccc(O)cc4CC[C@H]3[C@@H]1CC[C@@]21CO1 [3-Hydroxy-1,3,5(10),9(11)-estratetraene-17S-spirooxirane] | 0.81 µM | – | 210 min | –
20 | C[C@]12CC[C@@H]3c4ccc(O)cc4C=C[C@H]3[C@@H]1C[C@@H](O)[C@@H]2O [6-Dehydroestriol] | 45.6 µM | 7.9% | – | –
